In brackets after ≈: the same amount, converted by molar mass. Where only a bound is given, the exact number is not on record here.

This note sets out measurements from ChEMBL document CHEMBL1255412, “New mutation in 23S rRNA gene associated with high level of azithromycin resistance in Neisseria gonorrhoeae” (2010).

Experiment [1] concerns Neisseria gonorrhoeae. The experiment can be described thus: Antimicrobial activity against azithromycin resistant Neisseria gonorrhoeae isolate 2498 harboring C2599T mutation in peptidyltransferase loop in domain V of 23S rRNA alleles. The class given is functional.
For experiment [2], the system named is Neisseria gonorrhoeae. The experiment can be described thus: Antimicrobial activity against Neisseria gonorrhoeae isolate 3783. In kind it is functional.
The test system of experiment [3] is Neisseria gonorrhoeae. The experiment in a line: microbe, parasite or virus in culture.
Description: Antimicrobial activity against azithromycin resistant Neisseria gonorrhoeae isolate harboring C2599T mutation in peptidyltransferase loop in domain V of 23S rRNA alleles and T insertion in mtrR gene promoter region
Experiment [4] deals with Neisseria gonorrhoeae. The experiment can be described thus: Antimicrobial activity against high-level azithromycin resistant Neisseria gonorrhoeae isolate 1782 harboring A2143G mutation in peptidyltransferase loop in domain V of 23S rRNA alleles. In kind it is functional.

`CC[C@H]1OC(=O)[C@H](C)[C@@H](O[C@H]2C[C@@](C)(OC)[C@@H](O)[C@H](C)O2)[C@H](C)[C@@H](O[C@@H]2O[C@H](C)C[C@H](N(C)C)[C@H]2O)[C@](C)(O)C[C@@H](C)CN(C)[C@H](C)[C@@H](O)[C@]1(C)O` [AZITHROMYCIN]: the MIC with Neisseria gonorrhoeae [1] is 8 µg/mL (≈ 10.7 µM); in the experiment with Neisseria gonorrhoeae [2], 0.06 µg/mL (≈ 0.0801 µM); in the experiment on Neisseria gonorrhoeae [3], 4 µg/mL (≈ 5.34 µM); in the experiment on Neisseria gonorrhoeae [4] it was more than 2050 µg/mL.
